Assay results taken from US7655392B2, “Quenching methods for red blood cell inactivation process” (priority 2004, dated 2010).
Where “and” joins values, the source holds several entries; their conditions need not be identical. Equal entries are not always repeated.

How the values were obtained:
[1] = test system: Human Leukocyte Genomic DNA; assay: PIC-1 adduct frequency on leukocyte genomic DNA (14C-labelled PIC-1); type: biochemical; conditions: 20 h RT
Excerpt: The quenching methods of the invention can also be compared to existing methods by determining the level of modification of nucleic acids in a sample. Typically, a red blood cell composition may contain leukocytes, and the nucleic acid from the leukocytes can be isolated. A pathogen inactivating compound having a radioactive isotope that, upon reaction of the compound with nucleic acid, will remain bound to the nucleic acid. This can be used to assess the amount of compound reacted with the nucleic acid for a variety of quenching methods, and provides a measure that can be directly correlated to expected leukocyte inactivation. The number of adducts formed per 1,000 nucleic acid base pairs can be used as a model to assess the expected impact of the various methods on pathogen inactivation. Alternatively, a suitable amount of a pathogen can be added to a red blood cell composition and the nucleic acid of the pathogen can be isolated after treatment. However, in this case the sample needs to be leukoreduced such that the levels of any residual leukocytes will not interfere with the measurement of pathogen nucleic acid.
The PIC-1 used included radiolabeled PIC-1, where the reactive group included a ^14C label (ViTrax, Inc., Placentia, Calif.). The specific activity of the PIC-1 used was […]. All samples were incubated at room temperature for 20 hours. After the incubation, 20 mL of RBC were diluted with a 20 mL volume of PBS and 20 mL of the mixture were added to each of two tubes containing 10 mL of Ficoll. The suspension was then centrifuged at 400×g for 30 minutes. The white blood cell portion was separated and the centrifuge step repeated after adding another 20 mL of PBS. The pellets obtained were combined and the combined pellet was resuspended in 5 mL Lysis buffer (100 mM NaCl, 10 mM Tris HCl, 25 mM EDTA, 5% SDS, 0.1 mg/mL Proteinase K, Sigma, St. Louis, Mo.) and was incubated at 50° C. for at least two hours. The resulting solution was then extracted with 5 mL of phenol:chloroform:isoamyl alcohol […], followed by 5 mL of chloroform, and then 5 mL of ether. The genomic DNA was isolated in the aqueous layer and precipitated by addition of 0.5 mL of 3 M NaOAc, 10 mL of 100% ethanol, followed by incubation of the final mixture in a dry ice/ethanol bath. The DNA was isolated by centrifugation at 6,000×g for 10′. The supernatant was removed, and the pellet air-dried and resuspended in 1 mL of TE buffer (100 mM Tris HCl, 1 mM EDTA, pH=7.4) The amount of DNA isolated was quantified by UV absorption at 260 nm and the amount of PIC-1 adducts was quantified by liquid scintillation counting (Perkin Elmer-Wallac, Winspectral 1414 Liquid Scintillation Counter, Shelton, Conn.) of the solution of DNA, using the specific activity of the PIC-1 to assess the molar ratio of PIC-1 to DNA base pairs. […] Glutathione is indicated as “GSH” and cysteine as “Cys” in the table, as well as elsewhere herein. The determination of adduct frequency was used as a surrogate measurement for the inactivation of leukocytes. It is known that under the standard pathogen inactivation conditions, leukocytes are inactivated to the level of detection of a limiting dilution assay, which corresponds to 5.3 log of inactivation. The mechanism of inactivation is through formation of adducts on the genomic nucleic acids. […] Similar studies could be done with a suitable pathogen using leukoreduced red blood cells in order to assess the binding to the pathogen nucleic acid under various conditions.

Yersinia enterocolitica = assay: Inactivation of Yersinia enterocolitica in RBC (colony count); type: cell-based
[2] = test system: Staphylococcus epidermidis; assay: Inactivation of Staphylococcus epidermidis in RBC (colony count); conditions: for Change in Log titer: initial RBC titer 6.5
Experimental: Whole blood (Blood Source, Sacramento, Calif.) was used to prepare a red blood cell (RBC) composition by centrifuging to provide packed RBC (34 mL of approximately 90% hematocrit), then adding 17 mL Erythrosol to a hematocrit of approximately 60%. Erythrosol is a red blood cell additive (Baxter Healthcare Corp., Deerfield, Ill.) that may be prepared by combining sodium citrate dihydrate (7.82 g); sodium acid phosphate dihydrate (0.73 g); sodium phosphate dihydrate (3.03 g); adenine (0.22 g); mannitol (7.74 g); and glucose (9 g) in 1 liter of distilled water. The bacterial preparation was then added ( 1/100th of the total volume) to the RBC/Erythrosol to provide contaminated RBC. The contaminated RBC was divided into several samples and treated according to Table 2, where PIC-1 is β-alanine, N-(acridin-9-yl), 2-[bis(2-chloroethyl)amino]ethyl ester. The PIC-1 and glutathione (Aldrich, St. Louis, Mo.) were dissolved in a solution of 8% dextrose monohydrate at about 15× the desired concentration in the final red blood cell composition when added together, or 30× when added separately. […] For separate addition using 20 mM neutralized glutathione, PIC-1 is prepared by dissolving 7.6 mg in 2.5 mL of 8% dextrose, glutathione is prepared by dissolving 460 mg in 1.9 mL of 8% dextrose and mixing with 0.6 mL of 5N NaOH, then adding 165 μL of each solution to 4.67 mL RBC in the appropriate order. Following treatment, the samples were incubated for 2 hours, and 100 μL of each was serially diluted and plated on LB plates. These were incubated overnight at 37° C. in order to assess bacterial growth. The bacterial titer was determined by counting colonies on the plates and based on the dilution of the plate, the titer was determined. For example, with 10-fold serial dilutions, 30 colonies counted on the 5th dilution of the original solution, where 0.1 mL are plated, would indicate an initial titer of (30×10^5)/0.1=3×10^7, or 7.47 log. […] Note that for most samples in Table 2A the PIC-1 and glutathione were formulated together. […] The study was repeated with sequential addition of the two components, as indicated in Table 2B (time delay of 0 indicates they were added in the same solution).
Additional studies were done using S. epidermidis, where the overnight culture was used without dilution. […] PIC-1 is at 0.2 mM in all samples.
For these samples, the NaOH stock was prepared at 10N and appropriate volumes of the various components were used following the procedures above. Standard conditions and/or 20 mM neutralized glutathione (GSH) were run for comparison.

[3] = 20 mM GSH neutralized with 2 eq, 0.2 mM PIC-1 10 min later
[4] = 20 mM each neut. GSH (2 eq) and Cys (1 eq), 0.2 mM PIC-1 10 min later
[5] = 0.2 mM PIC-1, 2 mM acidic glutathione (0 eq base), no delay
[6] = 20 mM cysteine+1 eq base, then 0.2 mM PIC-1 after 10 min
[7] = 20 mM cysteine+2 eq base, then 0.2 mM PIC-1 after 10 min
[8] = 20 mM glutathione+2 eq base, then 0.2 mM PIC-1 after 10 min
[9] = 0.2 mM PIC-1, then 20 mM glutathione+2 eq base after 1 min
[10] = 0.2 mM PIC-1, then 20 mM glutathione+2 eq base after 5 min
[11] = 0.2 mM PIC-1, then 20 mM glutathione+2 eq base after 10 min
[12] = 0.2 mM PIC-1, then 20 mM glutathione+2 eq base after 20 min
[13] = 0.2 mM PIC-1 and 2 mM glutathione, 0 eq base, simultaneous
[14] = 0.2 mM PIC-1 and 20 mM glutathione, 0 eq base, simultaneous
[15] = 20 mM glutathione+2 eq base, then 0.2 mM PIC-1 after 1 min
[16] = Table 5C: 0.2 mM PIC-1+2 mM GSH, 0 eq base, no delay
[17] = Table 5C: 5 mM Cys+1 eq base, then 0.2 mM PIC-1 after 10 min
[18] = Table 5C: 10 mM Cys+1 eq base, then 0.2 mM PIC-1 after 10 min
[19] = Table 5C: 20 mM Cys+1 eq base, then 0.2 mM PIC-1 after 10 min
[20] = Table 5C: 20 mM GSH+2 eq base, then 0.2 mM PIC-1 after 10 min
[21] = Table 5C: […] Cys+1 eq base, then 0.2 mM PIC-1 after 10 min

## O=C(CCNc1c2ccccc2nc2ccccc12)OCCN(CCCl)CCCl [PIC-1]
[1]; 0.2 mM PIC-1, 2 mM acidic GSH
  Adduct frequency (average number of base pairs between adducts): 44 and 29
  Adducts per kbp: 23 and 34
[1]; 0.2 mM PIC-1, no quencher
  Adduct frequency (average number of base pairs between adducts): 36 and 35
  Adducts per kbp: 28
[1]; [3]
  Adduct frequency (average number of base pairs between adducts): 27 and 28
  Adducts per kbp: 37 and 36
[1]; [4]
  Adduct frequency (average number of base pairs between adducts): 33
  Adducts per kbp: 30
Yersinia enterocolitica; [5]
  Log Y. enterocolitica reduction: 8.49 Log
  Log Y. enterocolitica titer: 0.00 Log
Yersinia enterocolitica; [6]
  Log Y. enterocolitica reduction: 4.04 Log
  Log Y. enterocolitica titer: 4.45 Log
Yersinia enterocolitica; [7]
  Log Y. enterocolitica reduction: 5.79 Log
  Log Y. enterocolitica titer: 2.70 Log
Yersinia enterocolitica; [8]
  Log Y. enterocolitica reduction: 5.95 Log
  Log Y. enterocolitica titer: 2.54 Log
Yersinia enterocolitica; 20 mM neutralized cysteine or neutralized glutathione, 0.2 mM PIC-1
  reduction of log inactivation relative to the standard condition: about 2.5 log
[2]; [9]
  Log S. epidermidis reduction: 6.70 Log
  Log S. epidermidis titer: −0.08 Log
[2]; [10]
  Log S. epidermidis reduction: 6.70 Log
  Log S. epidermidis titer: −0.08 Log
[2]; [11]
  Log S. epidermidis reduction: 6.70 Log
  Log S. epidermidis titer: −0.08 Log
[2]; [12]
  Log S. epidermidis reduction: 6.70 Log
  Log S. epidermidis titer: −0.08 Log
[2]; [13]
  Log S. epidermidis reduction: 6.70 Log
  Log S. epidermidis titer: −0.08 Log
[2]; [14]
  Log S. epidermidis reduction: 0.22 Log
  Log S. epidermidis titer: 6.40 Log
[2]; [15]
  Log S. epidermidis reduction: 6.10 Log
  Log S. epidermidis titer: 0.52 Log
[2]; [8]
  Log S. epidermidis reduction: 5.92 Log
  Log S. epidermidis titer: 0.70 Log
[2]; 20 mM neutralized glutathione as quencher, 0.2 mM PIC-1
  inactivation of S. epidermidis: not significantly reduced
[2]; [16]
  Log S. epidermidis reduction: 7.2 Log
  Log S. epidermidis titer: 0 Log
[2]; [17]
  Log S. epidermidis reduction: 7.2 Log
  Log S. epidermidis titer: 0 Log
[2]; [18]
  Log S. epidermidis reduction: 4.9 Log
  Log S. epidermidis titer: 2.3 Log
[2]; [19]
  Log S. epidermidis reduction: 4.0 Log
  Log S. epidermidis titer: 3.2 Log
[2]; [20]
  Log S. epidermidis reduction: 7.2 Log
  Log S. epidermidis titer: 0 Log
[2]; [21]
  Log S. epidermidis reduction: 7.2 Log
  Log S. epidermidis titer: 0 Log
[2]; 2 mM GSH, 1 eq. base, 0.2 mM PIC-1
  Change in Log titer: 6.5 Log
[2]; 2 mM GSH, 2 eq. base, 0.2 mM PIC-1
  Change in Log titer: 6.5 Log
[2]; 2 mM GSH, no added base, 0.2 mM PIC-1
  Change in Log titer: 6.5 Log
[2]; 5 mM GSH, 1 eq. base, 0.2 mM PIC-1
  Change in Log titer: 6.5 Log
[2]; 5 mM GSH, 2 eq. base, 0.2 mM PIC-1
  Change in Log titer: 6.5 Log
[2]; 5 mM GSH, no added base, 0.2 mM PIC-1
  Change in Log titer: 6.5 Log
[2]; 10 mM GSH, 1 eq. base, 0.2 mM PIC-1
  Change in Log titer: 6.5 Log
[2]; 10 mM GSH, 2 eq. base, 0.2 mM PIC-1
  Change in Log titer: 6.5 Log
[2]; 10 mM GSH, no added base, 0.2 mM PIC-1
  Change in Log titer: 2.9 Log
[2]; 20 mM GSH, 1 eq. base, 0.2 mM PIC-1
  Change in Log titer: 6.5 Log
[2]; 20 mM GSH, 2 eq. base, 0.2 mM PIC-1
  Change in Log titer: 6.5 Log
[2]; 20 mM GSH, no added base, 0.2 mM PIC-1
  Change in Log titer: 2.5 Log
